From the supplement of paper PMC10307832

Tests used:
Assay in all cases: relative viability (nuclei count vs DMSO), 5 days (fraction); higher = more cells survive
XMD8-85 + Alpelisib = compound: CN1CCN(CC1)C2=CC(=C(C=C2)NC3=NC=C4C(=N3)N(C5=CC=CC=C5C(=O)N4C)C)OC [XMD8-85] + Cc1nc(NC(=O)N2CCC[C@H]2C(N)=O)sc1-c1ccnc(C(C)(C)C(F)(F)F)c1 [Alpelisib] (partner 2 µM)
How it was run: (§1)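 A single step with final 0.05% Triton X-100, 1% formaldehyde and 1 ug/ml Hoechst fixed the cells and stained nuclei 5 days after treatment. Lung cancer cell lines in 1536-well plates had been treated by pin tool the day after seeding with one drug alone or a fixed anchor-drug dose plus five library-drug doses (not always all listed) in √10 steps, and nuclei were counted on 4× images. Relative viability is the ratio of nuclei in treated wells to nuclei in vehicle wells, taken as the median of duplicate plates.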

4EGI-1 + Palbociclib = compound: O=C(O)C(Cc1ccccc1[N+](=O)[O-])=NNc1nc(-c2ccc(Cl)c(Cl)c2)cs1 (mixture of isomers) [4EGI-1] + CC(=O)c1c(C)c2cnc(Nc3ccc(N4CCNCC4)cn3)nc2n(C2CCCC2)c1=O [Palbociclib] (partner 0.5 µM)
How it was run: as §1

4EGI-1 + Bortezomib = compound: O=C(O)C(Cc1ccccc1[N+](=O)[O-])=NNc1nc(-c2ccc(Cl)c(Cl)c2)cs1 (mixture of isomers) [4EGI-1] + CC(C)C[C@H](NC(=O)[C@H](Cc1ccccc1)NC(=O)c1cnccn1)B(O)O [Bortezomib] (partner 0.002 µM)
How it was run: as §1

4EGI-1 + AZD7762 = compound: O=C(O)C(Cc1ccccc1[N+](=O)[O-])=NNc1nc(-c2ccc(Cl)c(Cl)c2)cs1 (mixture of isomers) [4EGI-1] + NC(=O)Nc1cc(-c2cccc(F)c2)sc1C(=O)N[C@H]1CCCNC1 [AZD7762] (partner 0.2 µM)
How it was run: as §1

| Cell Line | relative viability (XMD8-85 + Alpelisib; first compound 0.08 µM) | relative viability (XMD8-85 + Alpelisib; first compound 0.253 µM) | relative viability (XMD8-85 + Alpelisib; first compound 0.8 µM) | relative viability (XMD8-85 + Alpelisib; first compound 2.53 µM) | relative viability (XMD8-85 + Alpelisib; first compound 8 µM) | relative viability (4EGI-1 + Palbociclib; first compound 0.5 µM) | relative viability (4EGI-1 + Palbociclib; first compound 1.581 µM) | relative viability (4EGI-1 + Palbociclib; first compound 5 µM) | relative viability (4EGI-1 + Palbociclib; first compound 15.81 µM) | relative viability (4EGI-1 + Palbociclib; first compound 50 µM) | relative viability (4EGI-1 + Bortezomib; first compound 0.5 µM) | relative viability (4EGI-1 + Bortezomib; first compound 1.581 µM) | relative viability (4EGI-1 + Bortezomib; first compound 5 µM) | relative viability (4EGI-1 + Bortezomib; first compound 15.81 µM) | relative viability (4EGI-1 + Bortezomib; first compound 50 µM) | relative viability (4EGI-1 + AZD7762; first compound 0.5 µM) | relative viability (4EGI-1 + AZD7762; first compound 1.581 µM) | relative viability (4EGI-1 + AZD7762; first compound 5 µM) | relative viability (4EGI-1 + AZD7762; first compound 15.81 µM) | relative viability (4EGI-1 + AZD7762; first compound 50 µM) |
| --- | --- | --- | --- | --- | --- | --- | --- | --- | --- | --- | --- | --- | --- | --- | --- | --- | --- | --- | --- | --- |
| H3255 | 0.586 | 0.745 | 0.68 | 0.776 | 0.406 | 0.306 | 0.316 | 0.305 | 0.315 | 0.302 | 0.843 | 0.663 | 0.796 | 0.576 | 0.48 | 1.02 | 0.793 | 0.981 | 0.554 | 0.53 |
| HARA | 0.932 | 0.675 | 0.911 | 0.445 | 0.27 | 0.32 | 0.243 | 0.295 | 0.222 | 0.202 | 1.16 | 1.12 | 1.26 | 1.08 | 0.154 | 0.397 | 0.48 | 0.241 | 0.195 | 0.161 |
| HCC-15 | 0.934 | 0.851 | 0.997 | 0.894 | 0.661 | 0.677 | 0.747 | 0.788 | 0.679 | 0.292 | 1.09 | 1.12 | 1.06 | 0.951 | 0.801 | 1.21 | 1.12 | 1.26 | 1.17 | 1.28 |
| HCC-44 | 0.835 | 0.79 | 0.852 | 0.64 | 0.307 | 1 | 0.813 | 0.907 | 0.862 | 0.681 | 0.924 | 0.637 | 0.877 | 0.753 | 0.235 | 1.02 | 0.984 | 0.976 | 0.922 | 0.799 |
| HCC-78 | 0.384 | 0.405 | 0.39 | 0.3 | 0.285 | 0.471 | 0.462 | 0.434 | 0.432 | 0.488 | 0.618 | 0.466 | 0.513 | 0.432 | 0.399 | 0.617 | – | 0.651 | 0.451 | 0.512 |
| HCC-366 | 0.532 | 0.573 | 0.42 | 0.373 | 0.273 | 0.396 | 0.224 | 0.396 | 0.272 | 0.0604 | 1.12 | 0.841 | 1.04 | 1.09 | 0.19 | 0.33 | 0.23 | 0.293 | 0.174 | 0.0904 |
| HCC-827 | 0.946 | 1.06 | 0.939 | 1.08 | 0.996 | 0.521 | 0.403 | 0.565 | – | 0.5 | 0.991 | 0.853 | 1.02 | 0.267 | 0.519 | 0.255 | 0.217 | 0.211 | – | 0.139 |
| HOP-62 | 0.85 | 0.967 | 1.04 | 0.908 | – | 0.449 | 0.416 | 0.489 | 0.505 | 0.319 | 1.32 | – | 1.03 | 1.06 | 0.45 | 0.878 | 0.408 | 0.54 | 0.454 | 0.101 |
| LC-2-ad | 0.893 | 0.832 | 0.888 | 0.735 | – | 0.49 | 0.514 | 0.469 | 0.417 | 0.305 | 1.17 | 0.877 | 0.944 | 0.444 | 0.352 | 0.855 | 0.866 | 0.917 | 0.3 | 0.208 |
| LCLC-97TM1 | 0.294 | 0.238 | 0.293 | 0.263 | 0.36 | 0.224 | – | 0.227 | 0.177 | 0.123 | 0.589 | – | 0.942 | 0.271 | 0.277 | 0.242 | – | 0.362 | 0.41 | 0.0881 |
| LCLC-103H | 0.88 | 1.04 | 0.933 | 0.961 | 0.728 | 0.495 | 0.49 | 0.503 | 0.457 | 0.347 | 1.03 | 0.964 | 0.98 | 0.955 | 0.959 | 0.868 | 0.727 | 0.788 | 0.756 | 0.446 |
| LOU-NH91 | 0.681 | 0.758 | 0.726 | 0.711 | 0.616 | 0.493 | – | 0.519 | 0.581 | 0.52 | 0.501 | – | 0.531 | 0.384 | 0.426 | 0.811 | – | 0.781 | 0.72 | 0.439 |
| LU99A | 0.383 | 0.531 | 0.544 | 0.61 | 0.431 | 0.41 | 0.281 | 0.396 | 0.498 | 0.297 | 1.28 | – | 1.06 | 0.873 | 0.191 | 0.546 | 0.235 | 0.323 | 0.237 | 0.141 |
| LXF-289 | 1.02 | 0.964 | 1.01 | 1.08 | 0.939 | 0.603 | 0.602 | 0.582 | 0.553 | 0.518 | 1.06 | 1.06 | 1 | 0.876 | 0.443 | 1.05 | 1.1 | 1.06 | 1.04 | 0.545 |
| NCI-H23 | 0.608 | 0.824 | 0.741 | 0.64 | 0.391 | 0.541 | – | 0.614 | 0.393 | 0.272 | 1.16 | – | 1.18 | 1.03 | 0.656 | 0.372 | – | 0.27 | 0.23 | 0.192 |
| NCI-H322M | 0.77 | – | 0.819 | 0.784 | 0.782 | 0.461 | – | 0.516 | 0.46 | 0.453 | 1.18 | 1.21 | 1.18 | 0.991 | 1.09 | 0.604 | – | 0.563 | 0.417 | 0.36 |
| NCI-H441 | 0.837 | 1.03 | 0.693 | 0.714 | 0.698 | 0.283 | 0.2 | 0.23 | 0.185 | 0.146 | 0.634 | 0.517 | 0.659 | 0.492 | 0.441 | 1.38 | 1.13 | 1.28 | 1.08 | 0.772 |
